From patent publication EP1028948B1, “PHENYL-ALKYL-IMIDAZOLES AS H3 RECEPTOR ANTAGONISTS” (SCHERING CORPORATION, priority 1997, dated 1999) come the findings set out here.

For the assay, the target named is T1, H3 receptors (Cavia porcellus, UniProt Q9JI35).
T1 construct: The brain tissue was homogenized using a Polytron in a solution of 50 mM Tris, pH 7.5; from tissue; host or cells: guinea pig brain membranes
The assay can be described thus: H3 Receptor Binding Assay. The conditions noted are these: guinea pig brain membranes; 3 nM [3H]R-α-methylhistamine or 3 nM [3H]Nα-methylhistamine; 30°C for 30 min. As to the method: The source of the H3 receptors in this experiment was guinea pig brain. The animals weighed 400-600 g. […] The final concentration of tissue in the homogenization buffer was 10% w/v. […] The membranes were frozen and stored at -70°C until needed.
Membranes were then added (400 µg of protein) to the reaction tubes. […] Bound ligand was separated from unbound ligand by filtration, and the amount of radioactive ligand bound to the membranes was quantitated by liquid scintillation spectrometry.

Structures are written as SMILES.

T1 sequence (Q9JI35 whole entry): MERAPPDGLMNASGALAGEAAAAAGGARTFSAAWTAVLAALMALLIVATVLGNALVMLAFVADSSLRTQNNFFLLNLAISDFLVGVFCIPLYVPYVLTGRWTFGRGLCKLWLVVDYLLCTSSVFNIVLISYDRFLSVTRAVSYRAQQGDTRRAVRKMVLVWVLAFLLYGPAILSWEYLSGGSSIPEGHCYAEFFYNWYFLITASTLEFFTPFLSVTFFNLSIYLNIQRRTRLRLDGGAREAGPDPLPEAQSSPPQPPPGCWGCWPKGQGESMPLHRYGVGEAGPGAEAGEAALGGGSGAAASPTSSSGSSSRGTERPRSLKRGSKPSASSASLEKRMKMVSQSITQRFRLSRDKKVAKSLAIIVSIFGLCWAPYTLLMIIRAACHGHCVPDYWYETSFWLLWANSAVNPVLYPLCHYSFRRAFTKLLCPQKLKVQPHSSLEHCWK

One may read the Ki as a measure of affinity in units of concentration, obtained from inhibition or displacement. Take `O=C(/C=C/c1ccc(Cc2c[nH]cn2)cc1)NCCc1ccc(Cl)cc1` [Compound 3]: the inhibition constant (Ki) is 1 to 19 nM.
